≈ marks a conversion by molar mass, not a printed value. Where two headings read alike, the source gives them in different places.
Legend:
AB 5075 [1] = assay: Colistin MIC in absence or presence of compounds against AB 5075; type: cell-based, Acinetobacter baumannii
From the text: However, dropping LOS comes with fitness costs such as reduced growth rates, lower virulence, and increased sensitivity towards certain antibiotics.

AB 5075 [2] = conditions: colistin alone, earlier work; cited from earlier work
[3] = test system: A. baumannii strain 5075 (AB5075); assay: Standalone MIC against AB5075 (compound or antibiotic alone); type: cell-based, Acinetobacter baumannii; conditions: Acinetobacter baumannii; compound alone, AB5075
From the text: Dimers were first analyzed for standalone toxicity against AB5075.

[4] = test system: A. baumannii strain 5075 (AB5075); assay: Clarithromycin potentiation against AB5075 (CLR MIC in presence of adjuvant); type: cell-based, Acinetobacter baumannii; conditions: for CLR MIC / Fold Reduction of CLR MIC / Clarithromycin (CLR) MIC: AB5075
[5] = test system: panel of A. baumannii isolates; assay: CLR potentiation against panel of A. baumannii isolates; type: cell-based, Acinetobacter baumannii; conditions: 25 AB strains, adjuvant at 10 μM (4.8 μg/mL) or less
AB5075 = assay: Potentiation of azithromycin, erythromycin and rifampin against AB5075; type: cell-based, Acinetobacter baumannii
[6] = test system: K. pneumoniae (strain KP 2146); assay: Standalone MIC against KP 2146; type: cell-based, Klebsiella pneumoniae; conditions: 9k alone
P. aeruginosa (PAO1) [7] = assay: Standalone MIC against PAO1; type: cell-based, Pseudomonas aeruginosa; conditions: 9k alone
[8] = test system: Escherichia coli (EC 25922); assay: Standalone MIC against EC 25922; type: cell-based; conditions: 9k alone, read-out: Compound MIC
[9] = test system: K. pneumoniae (strain KP 2146); assay: CLR MIC in combination with 9k against KP 2146; type: cell-based, Klebsiella pneumoniae
P. aeruginosa (PAO1) [10] = assay: CLR MIC in combination with 9k against PAO1; type: cell-based, Pseudomonas aeruginosa
[11] = test system: Escherichia coli (EC 25922); assay: CLR MIC in combination with 9k against EC 25922; type: cell-based
K. pneumoniae 2146 = assay: Combination with RIF against K. pneumoniae 2146; type: cell-based, Klebsiella pneumoniae; conditions: K. pneumoniae 2146, compared with the parent dimers
A. baumannii = assay: CLR adjuvant activity with exogenous LOS added to the media; type: cell-based, Acinetobacter baumannii; conditions: LOS from AB5075 at 0.2 mg/mL or 0.5 mg/mL
Method: First, we examined the impact that addition of MgCl2 had on activity. Divalent cations, such as Mg^2+, are known to stabilize the outer membrane of gram-negative bacteria and the activity of membrane disruptors are known to be muted/abrogated by the addition of such cations. When the media was supplemented with MgCl2 (20 mM final concentration), activity was essentially abolished. As suppression of activity could conceivably originate from either blocking the compound's mechanism of action or simply making the membrane more impermeable that leads to the inability of the compound to penetrate the outer membrane, we next studied the impact that the addition of exogenous LOS had upon activity.

membrane integrity = assay: BacLight assay of membrane integrity; type: cell-based; conditions: in comparison to untreated control
From the text: We then quantified how compound 9k impacted membrane integrity using the BacLight assay. Compound 9k had essentially no impact on the membrane in comparison to untreated control and produced a −1.2±2.2% change in membrane permeability.

[12] = Microsomal (metabolic) stability; type: in vitro ADME; conditions: 60 minutes
Plasma stability = type: in vitro ADME; conditions: 4 hours
red blood cells = assay: Hemolysis assay; type: cell-based; conditions: 1% Triton X as 100% lysis control
HepG2 cells = assay: Cytotoxicity, XTT assay with HepG2 cells; conditions: read-out: IC50, HepG2 cells; mammalian cell toxicity
[13] = AB5075, adjuvant at 7.5 μM (3.6 μg/mL)

In the case of colistin [reference compound], the Colistin MIC (AB 5075 [1]; colistin alone) is given as 1 µg/mL, the “Colistin MIC” value (AB 5075 [1]; colistin alone, AB 5075) is given as 1 µg/mL and the “Colistin MIC” value (AB 5075 [2]) is given as 1 µg/mL.

With Nc1nc(-c2ccc(NC(=O)Nc3cccc(-c4c[nH]c(N)n4)c3F)cc2F)c[nH]1 [Compound 9k, 1-(3-(2-amino-1H-imidazol-4-yl)-2-fluorophenyl)-3-(4-(2-amino-1H-imidazol-4-yl)-3-fluorophenyl)urea] the MIC [3] was over 200 µM, the “lowest concentration at which the adjuvant suppressed the clarithromycin MIC to 2.0 μg/mL” value ([4]; AB5075, value in brackets) was 0.72 µg/mL and the “CLR MIC” value ([4]; adjuvant at 1.5 μM) was 2 µg/mL. For the same molecule, the “Fold Reduction of CLR MIC” value ([4]; adjuvant at 1.5 μM) was 16 fold, the “CLR MIC” value ([4]; adjuvant at 2.5 μM) was 0.125 µg/mL and the “Fold Reduction of CLR MIC” value ([4]; adjuvant at 2.5 μM) was 256 fold. The “Clarithromycin (CLR) MIC” value ([4]; adjuvant at 5 μM) was 0.0625 µg/mL, the “Fold Reduction of CLR MIC” value ([4]; adjuvant at 5 μM) was 512 fold and the “Clarithromycin (CLR) MIC” value ([4]; adjuvant at 7.5 μM) was at most 0.0625 µg/mL. The “Fold Reduction of CLR MIC” value ([4]; adjuvant at 7.5 μM) was at least 512 fold, the “Clarithromycin (CLR) MIC” value ([4]; adjuvant at 10 μM) was at most 0.0625 µg/mL and the “Fold Reduction of CLR MIC” value ([4]; adjuvant at 10 μM) was at least 512 fold. For the same molecule, the “Clarithromycin (CLR) MIC” value ([4]; adjuvant at 20 μM) was at most 0.0625 µg/mL, the “Fold Reduction of CLR MIC” value ([4]; adjuvant at 20 μM) was at least 512 fold and the “Clarithromycin (CLR) MIC” value ([4]; adjuvant at 30 μM) was at most 0.0625 µg/mL. For the same molecule, the “Fold Reduction of CLR MIC” value ([4]; adjuvant at 30 μM) was at least 512 fold, the “potentiation of colistin (in words)” value (AB 5075 [1]; AB5075) was “did not potentiate the activity” and the “Colistin MIC” value (AB 5075 [1]; adjuvant at 30 μM, AB5075) was 2 µg/mL. The “lowering of CLR MIC values” [5] was “at least four-fold”, the “fold decrease of RIF MIC” value (AB5075; AB5075, adjuvant at 5 μM (2.4 μg/mL)) was 32 fold and the “fold decrease of AZM MIC” value (AB5075; [13]) was “at least 64 fold”. For the same molecule, the “fold decrease of ERY MIC” value (AB5075; [13]) was “at least 64 fold”, the “fold decrease of RIF MIC” value (AB5075; AB5075, adjuvant at 10 μM) was 32 fold and the “activity in combination with AZM, ERM and RIF (in words)” value (AB5075; AB5075, adjuvant at ≤30% their MIC) was “significant activity”. For the same molecule, the “Compound MIC” value [6] was over 200 µM, the “Compound MIC” value (P. aeruginosa (PAO1) [7]) was over 200 µM and the MIC [8] was 12.5 µM (≈ 5.13 µg/mL). For the same molecule, the “fold potentiation of CLR” value [9] was “at least 256 fold”, the “CLR MIC + 9k” value ([9]; 9k at 7.5 μM) was 16 µg/mL and the “CLR MIC + 9k” value ([9]; 9k at 10 μM) was 2 µg/mL. The “CLR MIC + 9k” value ([9]; 9k at 30 μM) was 1 µg/mL, the “fold potentiation of CLR” value (P. aeruginosa (PAO1) [10]) was “at least 256 fold” and the “CLR MIC + 9k” value (P. aeruginosa (PAO1) [10]; 9k at 20 μM) was 4/8. The “CLR MIC + 9k” value (P. aeruginosa (PAO1) [10]; 9k at 30 μM) was 0.5 µg/mL, the “fold potentiation of CLR” value [11] was “at least 256 fold” and the “CLR MIC + 9k” value ([11]; 9k at 2.5 μM) was 32 µg/mL. The “CLR MIC + 9k” value ([11]; 9k at 3.0 μM) was 4 µg/mL, the “CLR MIC + 9k” value ([11]; 9k at 3.75 μM) was 0.125 µg/mL and the “potentiation of RIF (in words)” value (K. pneumoniae 2146) was “greater potentiation activity at lower concentrations”. For the same molecule, the “CLR adjuvant activity with exogenous LOS (in words)” value (A. baumannii) was “no loss of adjuvant activity”, the “change in membrane permeability” value (membrane integrity) was −1.2±2.2% and the “microsomal stability (in words)” value [12] was “steady concentration over 60 minutes”. For the same molecule, the “plasma stability (in words)” value (Plasma stability) was “steady concentration over 4 hours”, the “lytic effect on red blood cells (in words)” value (red blood cells; compound at 10 μM in combination with 0.0625 μg/mL clarithromycin) was “little to no lytic effect” and the “lytic effect on red blood cells (in words)” value (red blood cells; compound) was “little to no lytic effect”. It also gave an IC50 (HepG2 cells) of 431 µM.

Source: patent US20260138957A1, “UREA-LINKED 2-AMINOIMIDAZOLE DIMER POTENTIATORS” (UNIVERSITY OF NOTRE DAME DU LAC, priority 2022, published 2026)
